According to the supplement of paper PMC10307832:

Experiments:
Test in all cases: relative viability (nuclei count vs DMSO), 5 days (fraction); higher = more cells survive
OSI-027 + Tozasertib = compound: COc1cccc2cc(-c3nc([C@H]4CC[C@H](C(=O)O)CC4)n4ncnc(N)c34)[nH]c12 [OSI-027] + Cc1cc(Nc2cc(N3CCN(C)CC3)nc(Sc3ccc(NC(=O)C4CC4)cc3)n2)n[nH]1 [Tozasertib] (partner 0.1 µM)
Outline: (§1)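 Medians of duplicate plates are given as relative viability. That measure is the nuclei count in treated wells divided by the count in vehicle wells. Counts were taken on 4× images of lung cancer cell lines in 1536-well plates, 5 days after pin-tool dosing the day after seeding with one drug alone or a fixed anchor-drug dose plus five library-drug doses (not always all listed) in √10 steps.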

Alpelisib + AZD7762 = compound: Cc1nc(NC(=O)N2CCC[C@H]2C(N)=O)sc1-c1ccnc(C(C)(C)C(F)(F)F)c1 [Alpelisib] + NC(=O)Nc1cc(-c2cccc(F)c2)sc1C(=O)N[C@H]1CCCNC1 [AZD7762] (partner 0.2 µM)
Outline: as §1

Vemurafenib + Lapatinib = compound: CCCS(=O)(=O)Nc1ccc(F)c(C(=O)c2c[nH]c3ncc(-c4ccc(Cl)cc4)cc23)c1F [Vemurafenib] + CS(=O)(=O)CCNCc1ccc(-c2ccc3ncnc(Nc4ccc(OCc5cccc(F)c5)c(Cl)c4)c3c2)o1 [Lapatinib] (partner 2 µM)
Outline: as §1

Vemurafenib + Alpelisib = compound: CCCS(=O)(=O)Nc1ccc(F)c(C(=O)c2c[nH]c3ncc(-c4ccc(Cl)cc4)cc23)c1F [Vemurafenib] + Cc1nc(NC(=O)N2CCC[C@H]2C(N)=O)sc1-c1ccnc(C(C)(C)C(F)(F)F)c1 [Alpelisib] (partner 2 µM)
Outline: as §1

| Cell Line | relative viability (OSI-027 + Tozasertib; first compound 0.01 µM) | relative viability (OSI-027 + Tozasertib; first compound 0.1 µM) | relative viability (OSI-027 + Tozasertib; first compound 0.3162 µM) | relative viability (OSI-027 + Tozasertib; first compound 1 µM) | relative viability (Alpelisib + AZD7762; first compound 0.04 µM) | relative viability (Alpelisib + AZD7762; first compound 0.1265 µM) | relative viability (Alpelisib + AZD7762; first compound 0.4 µM) | relative viability (Alpelisib + AZD7762; first compound 1.265 µM) | relative viability (Alpelisib + AZD7762; first compound 4 µM) | relative viability (Vemurafenib + Lapatinib; first compound 0.03162 µM) | relative viability (Vemurafenib + Lapatinib; first compound 0.1 µM) | relative viability (Vemurafenib + Lapatinib; first compound 0.3162 µM) | relative viability (Vemurafenib + Lapatinib; first compound 1 µM) | relative viability (Vemurafenib + Alpelisib; first compound 0.03162 µM) | relative viability (Vemurafenib + Alpelisib; first compound 0.1 µM) | relative viability (Vemurafenib + Alpelisib; first compound 0.3162 µM) | relative viability (Vemurafenib + Alpelisib; first compound 1 µM) | relative viability (OSI-027 + Tozasertib; first compound 0.03162 µM) |
| --- | --- | --- | --- | --- | --- | --- | --- | --- | --- | --- | --- | --- | --- | --- | --- | --- | --- | --- |
| NCI-H1648 | 0.412 | 0.419 | 0.366 | 0.305 | 0.581 | 0.591 | 0.821 | 0.62 | 0.521 |  |  |  |  |  |  |  |  |  |
| Calu-6 |  |  |  |  |  |  |  |  |  | 1.02 | 1.06 | 1.01 | 0.924 | 0.975 | 0.891 | 0.817 | 0.904 |  |
| IA-LM |  |  |  |  |  |  |  |  |  | 0.764 | 0.715 | 0.684 | 0.608 | 0.824 | 0.81 | 0.777 | 0.548 |  |
| NCI-H441 | 0.625 | 0.629 | 0.535 | 0.489 | 1.28 | 1.14 | 1.35 | 1.22 | 1.07 |  |  |  |  | 0.791 | 0.741 |  | 0.534 | 0.72 |
| SW 1573 | 0.186 | 0.206 | 0.142 | 0.178 |  |  |  |  |  | 1.01 | 0.916 | 1.02 | 0.978 | 0.769 | 0.667 | 0.781 | 0.551 | 0.197 |
| NCI-H1299 |  |  |  |  |  |  |  |  |  | 0.965 | 0.93 | 0.885 | 0.952 | 1.05 | 1.05 | 0.928 | 0.985 |  |
| NCI-H2009 | 0.759 | 0.717 | 0.755 | 0.444 |  |  |  |  |  | 0.897 | 0.876 | 0.559 | 0.759 | 1.16 | 1.1 | 1.02 | 1.11 | 0.621 |
| NCI-H2342 | 0.445 | 0.492 | 0.449 | 0.421 | 0.477 | 0.421 | 0.506 | 0.497 | 0.426 |  |  |  |  |  |  |  |  | 0.509 |
| A549 |  |  |  |  |  |  |  |  |  | 0.902 | 0.964 | 1.06 | 1.07 | 0.568 | 0.713 | 0.772 | 0.867 |  |
| NCI-H1650 | 0.454 | 0.36 | 0.424 | 0.355 |  |  |  |  |  | 0.7 |  | 0.699 | 0.738 |  |  |  |  | 0.347 |
| NCI-H1703 |  |  |  |  | 0.0965 | 0.129 | 0.125 | 0.103 | 0.116 | 1.19 | 0.916 | 0.924 | 0.987 | 0.353 | 0.318 | 0.292 | 0.301 |  |
| SK-MES-1 | 0.923 | 0.807 | 0.744 | 0.402 |  |  |  |  |  | 0.427 | 0.477 | 0.493 | 0.486 | 0.829 | 0.574 | 0.723 | 0.776 | 0.842 |
| LCLC-103H | 0.49 | 0.489 | 0.44 | 0.333 | 0.72 | 0.872 | 0.631 | 0.61 | 0.591 |  |  |  |  | 0.901 | 0.883 | 1.02 | 1.04 | 0.424 |
| EBC-1 |  |  |  |  |  |  |  |  |  | 0.201 | 0.214 | 0.245 | 0.261 | 0.835 | 0.833 | 0.805 | 0.834 |  |
| SK-LU-1 | 0.295 | 0.303 | 0.248 | 0.241 |  |  |  |  |  | 0.777 | 0.791 |  | 0.803 | 0.996 | 0.96 | 0.682 | 0.758 | 0.331 |
| NCI-H520 | 0.429 | 0.396 | 0.339 | 0.193 |  |  |  |  |  | 0.759 | 0.839 | 0.859 | 0.751 | 0.979 | 1.05 | 0.94 | 0.793 | 0.385 |
| SW 900 |  | 0.493 | 0.589 | 0.483 | 0.629 |  | 0.545 | 0.546 | 0.519 |  |  |  |  |  |  |  |  | 0.548 |
| NCI-H1563 |  |  |  |  |  |  |  |  |  | 0.842 | 0.886 | 0.84 | 0.961 | 0.874 | 0.935 | 0.904 | 0.949 |  |
| NCI-H522 | 0.536 | 0.524 | 0.522 | 0.431 | 0.791 | 0.987 | 0.729 | 0.702 | 0.678 |  |  |  |  |  |  |  |  | 0.625 |
| NCI-H661 | 0.357 | 0.362 | 0.344 | 0.351 |  |  |  |  |  | 0.488 | 0.534 | 0.507 | 0.424 | 0.43 | 0.478 | 0.409 | 0.58 | 0.374 |
| NCI-H1623 | 0.391 | 0.417 | 0.414 | 0.233 |  |  |  |  |  |  |  |  |  |  |  |  |  | 0.414 |
| NCI-H1792 |  |  |  |  | 0.59 | 0.534 | 0.783 | 0.465 | 0.36 | 0.819 | 0.886 | 0.651 | 0.959 | 0.624 | 0.673 | 0.61 | 0.693 |  |
| COR-L 105 | 0.335 | 0.374 | 0.371 | 0.411 |  |  |  |  |  | 0.348 |  | 0.32 | 0.373 | 0.936 |  | 1.11 | 0.839 | 0.336 |
| COR-L23 | 0.18 | 0.237 | 0.287 | 0.19 |  |  |  |  |  | 1.01 | 0.91 | 0.684 | 0.98 | 0.706 | 0.693 | 0.687 | 0.78 | 0.185 |
| NCI-H2023 | 0.424 | 0.352 | 0.348 | 0.244 |  |  |  |  |  | 0.734 | 0.812 | 0.736 | 0.725 | 0.614 | 0.524 | 0.749 | 0.538 | 0.319 |
| ChaGo-K-1 | 0.208 | 0.203 | 0.382 | 0.172 | 0.865 | 0.909 | 0.875 | 0.791 | 0.672 |  |  |  |  |  |  |  |  | 0.222 |
| NCI-H2228 | 0.246 | 0.242 | 0.207 | 0.16 |  |  |  |  |  | 1.11 | 1.09 | 1.21 | 1.06 | 0.964 | 0.752 | 0.905 | 0.627 | 0.242 |
